Data on 20 compounds can be found in patent US20250115628A1, “FLUORINATED FLUOROPHORES” (HOWARD HUGHES MEDICAL INSTITUTE, priority 2023, published 2025).

Read-outs that look alike come from different tables or passages of the source.

Series [1] in a line: General UV-vis and fluorescence spectroscopy. The series is classed as physicochemical. As for the experimental part:
Spectroscopy was performed using 1^−cm path length, 3.5^−mL quartz cuvettes or 1^−cm path length, 1.4^−mL semi-micro quartz cuvettes from Starna Cells. All measurements were taken at ambient temperature (22±2° C.). Absorption spectra were recorded on a Cary Model 100 spectrometer (Agilent), and fluorescence spectra were recorded on a Cary Eclipse fluorometer (Varian). The spectra, maximum absorption wavelength (labs), extinction coefficient at λabs (8), and maximum emission wavelength (em) were measured in 10 mM HEPES, pH 7.3 buffer (rhodamines and Malachite Green derivative 49) or 0.1 M NaOH (fluoresceins); the reported values for e are averages (n=3). Normalized spectra are shown for clarity.

Series [2] can be described thus: pKa determination (absorbance vs. pH). The settings on record: for ηH: Hill coefficient from pH titration data; for pKa: aqueous buffer solutions.
Method: For pH 2.0-4.0, the McIlvaine citrate/phosphate buffer system was used. For other pH ranges dye absorbance was measured in buffers containing 150 mM NaCl and 10 mM buffer using the following systems: citrate (pH 4.0-6.0), phosphate (pH 5.8-8.0); tris (pH 7.8-9.0); carbonate (pH 9.2-10.0). Buffer solutions containing 5 M of each fluorophore were prepared (36 samples in duplicate from pH 4.0-10.0 for 51, 53, and 60; 48 samples in duplicate from pH 2.0-10.0 for 76 and 77). Absorbance values were recorded on a Cary Model 100 spectrometer and plotted using GraphPad Prism software. The points were fitted to a sigmoidal dose response curve with a variable slope to determine the Hill coefficient (ηH).
Series [3] can be described thus: Quantum yield determination. The class given is physicochemical. On the procedure:
All reported absolute fluorescence quantum yield values (Φf) were measured using a Quantaurus-QY spectrometer (model C11374, Hamamatsu). This instrument uses an integrating sphere to determine photons absorbed and emitted by a sample. Measurements were carried out using dilute samples (A<0.1), and self-absorption corrections were performed using the instrument software.^81

The conditions of series [4]: rhodamine derivatives; 10 mM HEPES, pH 7.3; data from the inventors' published work; cited from earlier work.
For series [5] the following is noted: rhodamine derivatives; 10 mM HEPES, pH 7.3; data from the inventors' published work; cited from earlier work. The source holds these as a separate data set.
The conditions of series [6]: rhodamine derivatives; 1:1 dioxane:H2O; data from the inventors' published work; cited from earlier work.
Series [7] in a line: Determination of KL-Z (lactone-zwitterion equilibrium constant). The series is classed as physicochemical. Further details: key: KL-Z = (εdw/εmax)/(1−εdw/εmax); εdw measured in 1:1 dioxane/water. The settings on record: 1:1 dioxane:H2O. As for the experimental part:
KL-Z was calculated using the following equation:^16, 18 KL-Z=(εdw/εmax)/(1−εdw/εmax). εdw is the extinction coefficient of the dyes in a 1:1 (v/v) dioxane/water solvent mixture; this dioxane/water mixture was chosen to give the maximum spread of KL-Z values across all classes of rhodamines.^18 εmax refers to the maximal extinction coefficients measured in different solvent mixtures empirically determined depending on dye type: 0.1% v/v trifluoroacetic acid in ethanol for 18, 20, 29, 34, 36, 70-72, 81-83, 93-95, 99-102, and 104; 0.1% v/v trifluoroacetic acid in 2,2,2^−trifluoroethanol for all other rhodamine variants. A accurate determination of low KL-Z values is complicated by the relatively poor sensitivity of absorbance measurements.

Where [8] appears, read: fluorescein derivatives, 0.1 N NaOH.
Setting [9] is: quinolinyl rhodamines, 10 mM HEPES, pH 7.3.
Setting [10] is: rhodamine derivatives, 10 mM HEPES, pH 7.3.

Take `CC1(C)C2=CC(=O)C(F)=CC2=C(c2c(F)c(F)c(F)c(F)c2C(=O)O)c2cc(F)c(O)cc21` [compound 53, 2′,4,5,6,7,7′-Hexafluorocarbofluorescein]: in series [1] (setting [8]), the ε was 91,100 M^−1cm^−1, the λabs is given as 576 nm and the λem is given as 599 nm. In series [2], the ηH is 1.00 and the pKa came to 5.47. This compound yielded a Φf in series [3] (setting [8]) of 0.29.
As to `[2H]C1([2H])N(c2ccc3c(c2)[Si](C)(C)C2=CC(=[N+]4C([2H])([2H])C([2H])([2H])C([2H])([2H])C4([2H])[2H])C=CC2=C3c2ccccc2C(=O)[O-])C([2H])([2H])C([2H])([2H])C1([2H])[2H]` [compound 89, JFX650], in series [4], the ε is reported as 17,600 M^−1cm^−1, the λabs is 650 nm and the λem is recorded as 667 nm. Moreover, the Φf in series [5] is 0.53.
As for JF669 [compound 2], in series [6], the KL-Z is 0.262. Moreover, in series [4], the ε is on record as 112,000 M^−1cm^−1, the λabs is 669 nm and the λem was 662 nm. For the same compound, the Φf in series [5] is 0.37.
`O=C1OC2(c3ccc(O)cc3Oc3cc(O)ccc32)c2c(F)c(F)c(F)c(F)c21` [compound 60, 4,5,6,7^−tetrafluorofluorescein, reference compound]: in series [1] (setting [8]), the ε was 85,600 M^−1cm^−1, the λabs was found to be 508 nm and the λem is recorded as 527 nm. In addition, the ηH in series [2] is 0.92. Also, the Φf in series [3] (setting [8]) is 0.85.
As for `C[Si]1(C)c2cc(N3CCC3)ccc2C2(OC(=O)c3ccccc32)c2ccc(N3CCC3)cc21` [compound 1, JF646], in series [4], the ε is recorded as 5,600 M^−1cm^−1, the λabs is reported as 646 nm and the λem is on record as 664 nm. For the same compound, the Φf in series [5] is on record as 0.54.
For `CC1CC(C)(C)Nc2cc3[o+]c4cc5c(cc4c(-c4ccccc4C(=O)[O-])c3cc21)C(C)CC(C)(C)N5` (centres unmarked) [compound 99, 2^−(2,2,4,8,10,10^−Hexamethyl-1,2,3,4,8,9,10,11-octahydropyrano[3,2^−g:5,6^−g′]diquinolin-13^−ium-6^−yl)benzoate], in series [1] (setting [9]), the ε was 112,000 M^−1cm^−1, the λabs came to 542 nm and the λem is 564 nm. Besides, the KL-Z in series [7] (quinolinyl rhodamines) was 6.30. Moreover, in series [3] (setting [9]), the Φf is 0.83.
`CC1=CC(C)(C)Nc2cc3[o+]c4cc5c(cc4c(-c4c(F)c(F)c(F)c(F)c4C(=O)[O-])c3cc21)C(C)=CC(C)(C)N5` [compound 20, 2,3,4,5^−Tetrafluoro-6^−(2,2,4,8,10,10^−hexamethyl-1,2,10,11-tetrahydropyrano[3,2^−g:5,6^−g]diquinolin-13^−ium-6^−yl)benzoate]: in series [1] (setting [9]), the ε was 117,000 M^−1cm^−1, the λabs came out at 596 nm and the λem is 614 nm. In series [7] (quinolinyl rhodamines), this compound registered a KL-Z of 7.65. In series [3] (setting [9]), this compound registered a Φf of 0.64.
In the case of `CC1(C)C2=CC(=O)C=CC2=C(c2c(F)c(F)c(F)c(F)c2C(=O)O)c2ccc(O)cc21` [compound 51, 4,5,6,7^−Tetrafluoro-carbofluorescein], in series [1] (setting [8]), the ε is 96,700 M^−1cm^−1, the λabs was determined as 564 nm and the λem is 585 nm. In series [2], the ηH worked out at 1.02 and the pKa came to 6.86. For the same compound, in series [3] (setting [8]), the Φf is on record as 0.54.
Turning to `CC1=CC(C)(C)N(C)c2cc3c(cc21)C(c1ccccc1C(=O)[O-])=c1cc2c(cc1O3)=[N+](C)C(C)(C)C=C2C` [compound 103, 2^−(1,2,2,4,8,10,10,11-Octamethyl-1,2,10,11-tetrahydropyrano[3,2^−g:5,6^−g]diquinolin-13^−ium-6^−yl)benzoate], in series [1] (setting [9]), the ε is given as 95,200 M^−1cm^−1, the λabs is given as 585 nm and the λem is reported as 610 nm. The compound also showed a KL-Z in series [7] (quinolinyl rhodamines) of 4.44. Also, in series [3] (setting [9]), the Φf came out at 0.73.
Take `O=C1OC2(c3cc(F)c(O)cc3Oc3cc(O)c(F)cc32)c2ccccc21` [compound 76, reference compound]: in series [1] (setting [8]), the ε was 82,400 M^−1cm^−1, the λabs was 490 nm and the λem is given as 514 nm. The ηH in series [2] came out at 0.98. The Φf in series [3] (setting [8]) stood at 0.97.
Turning to `O=C1OC2(c3cc(F)c(O)cc3Oc3cc(O)c(F)cc32)c2c(F)c(F)c(F)c(F)c21` [compound 77, reference compound], in series [1] (setting [8]), the ε is on record as 81,200 M^−1cm^−1, the λabs was 508 nm and the λem is recorded as 527 nm. In series [2], this compound registered a ηH of 1.00. Moreover, the Φf in series [3] (setting [8]) amounted to 0.18.
On to `CN(c1ccccc1)c1ccc2c(-c3ccccc3C(=O)[O-])c3ccc(=[N+](C)c4ccccc4)cc-3oc2c1` [compound 90], for which, in series [6], the KL-Z is reported as 0.296. For the same compound, in series [4], the ε was 16,000 M^−1cm^−1 and the λabs is recorded as 549 nm.
Turning to `C[Si]1(C)C2=CC(=O)C=CC2=C(c2c(F)c(F)c(F)c(F)c2C(=O)O)c2ccc(O)cc21` [compound 55, 4,5,6,7^−Tetrafluoro-Si-fluorescein], in series [1] (setting [8]), the ε is listed as 84,100 M^−1cm^−1, the λabs is 598 nm and the λem was determined as 614 nm. In series [2], the ηH is given as 1.23 and the pKa amounted to 7.08. The compound further gave a Φf in series [3] (setting [8]) of 0.50.
Consider `CC1=CC(C)(C)Nc2cc3[o+]c4cc5c(cc4c(-c4ccccc4C(=O)[O-])c3cc21)C(C)=CC(C)(C)N5` [compound 101, 2^−(2,2,4,8,10,10^−Hexamethyl-1,2,10,11^−tetrahydropyrano[3,2-g:5,6^−g′]diquinolin-13^−ium-6^−yl)benzoate], for which, in series [1] (setting [9]), the ε is 94,100 M^−1cm^−1, the λabs is given as 573 nm and the λem is on record as 595 nm. For the same compound, the KL-Z in series [7] (quinolinyl rhodamines) is 5.14. The compound further gave a Φf in series [3] (setting [9]) of 0.68.
On to `O=C1OC2(c3ccc(O)cc3Oc3cc(O)ccc32)c2ccccc21` [compound 73, reference compound], for which, in series [1] (setting [8]), the ε is 90,000 M^−1cm^−1, the λabs came to 490 nm and the λem was determined as 514 nm. The compound also came in with a ηH in series [2] of 0.97. This compound returned a Φf in series [3] (setting [8]) of 0.92.
For the compound `C[Si]1(C)C2=CC(=N)C=CC2=C(c2ccccc2C(=O)O)c2ccc(N)cc21` [compound 83], in series [4], the ε is listed as 2,200 M^−1cm^−1, the λabs was 587 nm and the λem is recorded as 609 nm. The Φf in series [5] is given as 0.53.
Take `CCC1=CC2=C(c3ccccc3C(=O)O)c3cc4c(cc3C(C)(C)C2=CC1=NC)NCCC4` [compound 94, Carbo-Q-rhodamine]: in series [1] (setting [10]), the ε was 101,000 M^−1cm^−1, the λabs is 598 nm and the λem worked out at 620 nm. In series [7] (rhodamine derivatives), this compound showed a KL-Z of 1.51. Further, the Φf in series [3] (setting [10]) is reported as 0.51.
The matching figures for `C[Si]1(C)C2=CC(=N)C=CC2=C(c2c(F)c(F)c(F)c(F)c2C(=O)O)c2ccc(N)cc21` [compound 72, 4,5,6,7^−Tetrafluoro-Si-rhodamine 110]: 77,800 M^−1cm^−1, 611 nm, 627 nm, 0.0195 and 0.42.
With `CC1CC(C)(C)Nc2cc3c(cc21)C(c1ccccc1C(=O)O)=c1cc2c(cc1[Si]3(C)C)=NC(C)(C)CC2C` (centres unmarked) [compound 100, 2^−(2,2,4,8,10,10,13,13-Octamethyl-2,3,4,8,9,10,11,13-octahydrosilino[3,2^−g:5,6^−g]diquinolin-6^−ylium-6(1H)-yl)-benzoate], in series [1] (setting [9]), the ε is given as 10,400 M^−1cm^−1, the λabs came out at 638 nm and the λem is on record as 655 nm. Besides, in series [7] (quinolinyl rhodamines), the KL-Z was found to be 0.0220. The Φf in series [3] (setting [9]) was 0.34.
On to `CCc1cc2c(c3c1=[N+](C)CCC3)C(C)(C)c1c(cc3c4c1CCCN4CCC3)C=2c1c(F)c(F)c(F)c(F)c1C(=O)[O-]` [compound 57, JF660], for which, in series [1] (setting [10]), the ε is given as 148,000 M^−1cm^−1, the λabs came to 660 nm and the λem is 673 nm. Further, the KL-Z in series [7] (rhodamine derivatives) is listed as 7.55. Also, the Φf in series [3] (setting [10]) is 0.54.

For orientation: pKa means the pH at which an ionisable group is half protonated.
